Data set [1] in a line: Drug cocktail i.v. in mice: 24 h urine, fraction of dose excreted. The following applies: for Mean fraction of dose excreted to urine: mice, after drug cocktail administration; for Fraction of dose in urine (24 h), cirrhotic vs control mice: i.v. drug cocktail.
For data set [2] the following is noted: human, cited from earlier work.
For data set [3] the following is noted: humans, cited from earlier work; for Recovered from urine: after a single oral dose, ref Knauf and Mutschler, 1998, FDA.
The conditions of data set [4]: cited from earlier work.
For data set [5] the following is noted: rat, cited from earlier work.
The conditions of data set [6]: cited from earlier work. This is another data set of the same source.
The conditions of data set [7]: human, cited from earlier work. This is another data set of the same source.
The conditions of data set [8]: mouse, in vivo.
Data set [9] is described as follows: Chronic CCl4 treatment (12 months): blood chemistry and bile acids. It is filed as in vivo, mice. The method, then: Male C57 Black 6/N 8–10-week-old mice were used (Janvier Labs, France). The mice were housed under standard environmental conditions with ad libitum feeding on a normal rodent diet (Ssniff, Soest, Germany) and with free access to water. To induce chronic liver damage, the mice were treated repeatedly with carbon tetrachloride (CCl4, 1 G/kg intraperitoneal) twice per week for 12 months ([Ghallab et al., 2019b]; [Holland et al., 2022]). The control mice received the vehicle only (olive oil, application volume 4 mL/kg intraperitoneal). On day 6, after the last CCl4/oil injection, blood as well as liver tissue samples were collected, as previously described ([Ghallab et al., 2016]). All experiments were approved by the local animal protection authorities (application number: 84-02.04.2017. A177).
ALT, AST, and ALP activities as well as albumin concentrations of plasma samples were measured with a 1:1 dilution in PBS using a Piccolo Xpress® chemistry analyzer and General Chemistry 13 panels (Hitado, Möhnesee, Germany).
Plasma concentrations of bile acids were analyzed using negative electrospray (ESI) liquid chromatography-tandem mass spectrometry (LC-MS/MS), as previously described ([Ghallab et al., 2022]).

Data set [10] can be described thus: Drug cocktail i.v. in mice: 2 h bile, fraction of dose excreted. The conditions noted are these: for Mean fraction of dose excreted to bile: mice, 2 h after drug administration.
A short description of data set [11]: Drug cocktail i.v. in CCl4-cirrhotic and control mice: plasma concentrations and AUC. The following applies: for Measured plasma concentrations in cirrhotic mice vs PBPK-predicted concentrations: 15-120 min after cocktail, prediction with CYP activity at 11%; for Phase I metabolite in blood (formation), cirrhotic vs control, experimental data: i.v. drug cocktail.

For data set [12] the following is noted: cited from earlier work. The source holds these as a separate data set.
For data set [13] the following is noted: cited from earlier work. The source holds these as a separate data set.
The mark [14] stands for this setting: DrugBank, experimental, ref Wishart et al., 2017.
The mark [15] stands for this setting: DrugBank, predicted AlogPS, ref Wishart et al., 2017.
Setting [16] is: DrugBank, predicted ChemAxon, ref Wishart et al., 2017.
Setting [17] is: optimized (mouse), ref Schenk et al., 2017.
Setting [18] is: optimized, ref Krauss et al., 2017.
Setting [19] is: experimental, ref Vree and Verwey-van Wissen.
The mark [20] stands for this setting: experimental (morphine: logP uncharged), ref Avdeef, 1996.
[21] abbreviates: predicted ACD, ref Nguyen et al., 2016.
Setting [22] is: predicted, ref Wishart et al., 2017.

Where “and” joins values, the source holds several entries; their conditions need not be identical. Identical values can stand only once. Like-named read-outs stand apart in the source and are kept apart here.

The Solubility is the concentration that dissolves in the medium under given conditions. As usually defined, the pKa is the pH at which an ionisable group is half protonated.

Turning to `CN1CC[C@]23c4c5ccc(O)c4O[C@H]2[C@@H](O)C=C[C@H]3[C@H]1C5` [Morphine, morphine], the “Mean fraction of dose excreted to urine” value in [1] is reported as 1%.

On to `Cc1cccc(Nc2ccncc2S(=O)(=O)NC(=O)NC(C)C)c1` [Torsemide, torsemide], for which the Fraction unbound was below 0.01 in data set [2] (experimental, ref Knauf and Mutschler, 1998, Wishart et al., 2017); 0.061 in [5] (experimental, ref Lee et al., 2005); 0.06 in data set [5] (experimental, ref Lee et al., 2005, listed as torsemide); 0.00125 in data set [7] (setting [18]). The Recovered from urine entry in [3] (2017) is on record as “about 20%”. Further, the “Share excreted to urine” value in [3] (ref FDA, 2017) is given as “about 20%”. Further, the “Share of drug clearance by hepatic metabolism” value in [3] (ref FDA, 2017) is “about 80%”. Moreover, the “Dose found in bile” value in data set [4] (rat, after 8h cannulation, ref Lee et al., 2005) is on record as “about 2%”. Further, the “Tissue-to-plasma ratio, liver” value in data set [4] (ref Lee 2005) is reported as 0.336. In addition, the “Tissue-to-plasma ratio, muscle” value in [4] (ref Lee 2005) is reported as 0.069. In addition, the Lipophilicity in data set [6] (setting [14]) is 3.356; in data set [6] (setting [15]), 1.76; in data set [6] (setting [16]), 1.86; in data set [6] (mouse, optimized, ref Thiel et al., 2015) it was 2.023; in [6] (setting [17]), 2.3; in data set [6] (ref Knauf and Mutschler, 1998), 0.57. Also, in data set [6] (setting [15]), the Solubility is 55.96 µg/mL. For the same molecule, the pKa in data set [6] (ref FDA, 2017, Wishart et al.) is 7.1; in data set [6] (ref Knauf and Mutschler, 1998) it was 7. Further, the “Mean fraction of dose excreted to urine” value in data set [8] is given as 4%. The “Fraction of dose in urine (24 h), cirrhotic vs control mice” value (from here on “Fraction of dose … vs control mice”) in [8] (iv) is “increased significantly”.

For `ClC(Cl)(Cl)Cl` [CCl4, carbon tetrachloride], the “Plasma ALT” value in data set [9] (CCl4 1 g/kg i.p. twice per week, 12 months, vs oil) is recorded as “increased”. In data set [9] (CCl4 12 months vs oil), the ALP entry was “no significant changes”, the Albumin result is given as “no significant changes”, the “Plasma AST” value is given as “increased” and the “Serum bile acid levels” value is “increased”.

As for `COc1ccc2c3c1O[C@H]1[C@@H](O)C=C[C@H]4[C@@H](C2)N(C)CC[C@@]341` [Codeine, codeine], in [1], the “Mean fraction of dose excreted to urine” value was found to be 3%. Also, the “Mean fraction of dose excreted to bile” value in [10] is “below 1%”. The “Measured plasma concentrations of parent compound in cirrhotic mice” value in data set [11] (accompanying increased glucuronides) is reported as “decreased”. The Fraction unbound in [2] (DrugBank, ref Wishart et al., 2017) is listed as 0.75; in data set [2] (setting [19]), 0.44. Besides, the Lipophilicity in data set [6] (setting [14]) is given as 1.39; in [6] (setting [20]), 1.19.

`Cn1c(=O)[nH]c2ncn(C)c2c1=O` [Paraxanthine, 1,7-Dimethylxanthine]: the Fraction unbound in [2] (measured, ref Lelo et al., 1986) is 0.56; in data set [5] (measured, ref Bortolotti et al., 1985), 0.85. In addition, the Solubility in [6] (DrugBank, AlogPS prediction, ref Wishart et al., 2017) is 9130 µg/mL. The Lipophilicity in [6] (setting [15]) is -0.63; in [6] (setting [16]), 0.27. The pKa entry in data set [6] (ref FooDB) is reported as “Neutral”. Besides, the “Mean fraction of dose excreted to urine” value in data set [8] stood at 2%.

As for `O=C(O)[C@H]1O[C@@H](OCc2ncc3n2-c2ccc(Cl)cc2C(c2ccccc2F)=NC3)[C@H](O)[C@@H](O)[C@@H]1O` [OH-MDZ-G, 1-hydroxymidazolam glucuronide], the “Fraction of dose … vs control mice” value in data set [1] is “higher”. In [10], the “Mean fraction of dose excreted to bile” value was 1.2%. Further, the “Measured plasma concentrations in cirrhotic mice vs PBPK-predicted concentrations” value in [11] is recorded as “much higher”. Further, the Lipophilicity in [6] (ref Vossen et al., 2007) is given as 1.4.

As for `CC(C)NC(=O)NS(=O)(=O)c1cnccc1Nc1cccc(CO)c1` [OH-torsemide, hydroxy torsemide], the “Mean fraction of dose excreted to urine” value in data set [1] was determined as 11%. In [10], the “Mean fraction of dose excreted to bile” value is 0.8%. Besides, the “Phase I metabolite in blood (formation), cirrhotic vs control, experimental data” value in [11] is “decreased formation”. Also, the Recovered from urine entry in data set [3] (2017) is given as “about 10%”. The Lipophilicity was 0.86 in [6] (setting [15]); 0.49 in data set [6] (setting [16]); 0.75 in [6] (setting [17]); 2.139 in data set [6] (optimized, human, ref Krauss et al., 2017). Further, the Solubility in data set [6] (setting [15]) is 89.8 µg/mL. The Fraction unbound in data set [7] (setting [18]) is reported as 0.00191.

Take `COc1ccc2c3c1O[C@H]1[C@@H](O[C@@H]4O[C@H](C(=O)O)[C@@H](O)[C@H](O)[C@H]4O)C=C[C@H]4[C@@H](C2)N(C)CC[C@@]341` [C6G, codeine-6-glucuronide]: in [1], the “Fraction of dose … vs control mice” value is given as “higher” and the “Mean fraction of dose excreted to urine” value worked out at 1%. Also, the “Measured plasma concentrations in cirrhotic mice vs PBPK-predicted concentrations” value in [11] is recorded as “much higher”. Besides, the Fraction unbound in [2] (setting [19]) is on record as 0.44. Moreover, in data set [6] (setting [15]), the Lipophilicity is given as -0.23 and the Solubility was 4310 µg/mL. In addition, in [6] (setting [16]), the Lipophilicity is given as -2.8.

In the case of `Cn1c(=O)c2c(ncn2C)n(C)c1=O` [Caffeine, caffeine], the “Share of systemic clearance due to Cyp1a2” value in data set [12] (C57BL/6N mice, ref Buters et al., 1996) is recorded as 88%. Besides, the “Fraction excreted unchanged to urine” value in [12] (mice, ref Bonati et al., 1985) is on record as “about 5%”; in data set [3] (ref Nehlig, 2018) it was 0.5-2%. Also, in data set [13] (mouse), the Fraction unbound is 0.70. The “Mean fraction of dose excreted to urine” value in [8] came out at 1%.

With `COc1ccc2c3c1O[C@H]1[C@@H](O)C=C[C@H]4[C@@H](C2)NCC[C@@]341` [Norcodeine, norcodeine], the “Mean fraction of dose excreted to urine” value in [1] worked out at 3%. Further, the “Phase I metabolite in blood (formation), cirrhotic vs control, experimental data” value in data set [11] is reported as “reduced formation”. Besides, the Fraction unbound in data set [2] (setting [19]) is reported as 0.765. Also, the Lipophilicity in data set [6] (setting [15]) is 0.99; in data set [6] (setting [16]), 0.96; in data set [6] (setting [20]) it was 0.69. In addition, in data set [6] (ref Avdeef, 1996), the “pKa (Base)” value is 9.22.

For `CC(C)(C)NCC(O)COc1ccc(NC(=O)NC2CCCCC2)cc1` (stereo not drawn) [Talinolol, talinolol], the “Mean fraction of dose excreted to urine” value in data set [1] is 4% and < 5%. Further, the “Amount in bile, cirrhotic vs control mice” value in data set [10] (2 h bile) is listed as “significantly increased”. Also, the “Mean fraction of dose excreted to bile” value in [10] was 0.5% and < 1%. Besides, the Fraction unbound in data set [2] (measured, ref Obach et al., 2008) is on record as 0.39; in data set [13] (mouse, optimized (talinolol: possibly optimized), ref Thiel et al., 2015), 0.65; in [7] (possibly optimized, ref Tubic et al., 2006), 0.45. Besides, the “Median fraction of dose found in bile” value in [3] (after IV administration, ref Terhaag et al., 1989) is 9.3%. Also, in [3] (ref Trausch et al., 1995), the “Dose recovered unchanged from urine” value is reported as “about 60%”. In addition, the Lipophilicity in [6] (setting [15]) is reported as 2.91; in data set [6] (setting [16]) it was 2.8; in data set [6] (setting [17]), 2.3; in data set [6] (ref Gramatté et al., 1996), 1.08. Besides, the octanol-water partition coefficient in data set [6] (at pH=7.5, ref Gramatté et al., 1996) is on record as 12. In addition, in data set [6] (ref Gramatté et al., 1996), the Solubility was 3.4 mM. In addition, the “pKa (Base)” value in [6] (ref Matthaei et al., 2016) was 9.3. Besides, the “logP from the DrugBank database as quoted in text” value in [6] (rounded values, ref DrugBank) is 2.9.

As for `OCc1ncc2n1-c1ccc(Cl)cc1C(c1ccccc1F)=NC2` [OH-MDZ, 1-hydroxymidazolam], the “Mean fraction of dose excreted to urine” value in data set [1] is listed as “below 1%”. For the same molecule, the Fraction unbound in data set [2] (measured, ref Nguyen et al., 2016) is reported as 0.15; in [13] (setting [17]), 0.01. The Lipophilicity is given as 3.09 in data set [6] (setting [15]); 2.48 in data set [6] (setting [16]); 2.5 in data set [6] (setting [21]); 2.6 in [6] (ref Vossen et al., 2007). In addition, in data set [6] (setting [15]), the Solubility is 25.4 µg/mL. In addition, the “pKa, ampholyte, first value” in data set [6] (setting [21]) is 3.63; in data set [6] (setting [22]), 4.99. The “pKa, ampholyte, second value” in data set [6] (setting [21]) is reported as 13.6; in data set [6] (setting [22]), 13.95.
